Measured values taken from patent US7049328B2, “Use for deferiprone” (priority 2000, dated 2006).

Columns and labels:
[1] = system: subjects with thalassemia major; test: Retrospective study of cardiac disease (NYHA class, echocardiogram) and survival under chelation therapy; format: in vivo, human; conditions: for Percentage of patients with improvement of cardiac disease diagnosed at first assessment: NYHA classification; for Percentage of patients with worsening of the cardiac disease: overall, patients with at least 2 cardiac assessments; for Newly diagnosed cardiac disease: patients cardiac disease-free at first assessment with a second cardiac assessment; for Deaths during the study period: patients treated for 4 or more years; for Normalization of the Ejection Fraction (EF) during chelation therapy: patients with abnormal EF at first assessment (2 deferiprone, 1 desferrioxamine); for Improvement of the Systolic Function (SF): patients with abnormal SF at first echocardiographic assessment; for Percentage of patients with improvement of cardiac disease diagnosed at first assessment / Worsening of the cardiac disease in patients with previously diagnosed cardiac disease: patients with cardiac disease at first assessment
Experimental: The study was a single centre, retrospective analysis of medical records of the occurrence of cardiac disease and of the survival of all subjects with thalassemia major treated with deferiprone or with desferrioxamine at the Centro Microcitemie of the University of Turin since Jan. 1, 1995. The medical records were evaluated of all patients ≧5 year-old at the time of the start of the review period and who had the diagnosis of thalassemia major confirmed by laboratory tests (electrophoresis and/or DNA analysis) and clinical criteria (participant's hemoglobin and transfusion dependency).
In addition to the clinical evaluation and laboratory testing, patients underwent periodic cardiac examination and assessment by a cardiologist, which in addition to the physical examination included echocardiogram and 24-hour electrocardiographic Holter monitoring if indicated. Cardiac disease was classified, according to the criteria defined by the New York Heart Association ^17, by a cardiologist experienced in heart problems in subjects with hemoglobinopathies and who was unaware of the chelation therapy of the patients. Worsening of the Systolic Function (SF) or the Ejection Fraction (EF) was defined as an abnormal result at the last assessment in patients with a normal result at the first assessment for the study. Improvement was defined as a normal result at the last assessment for patients with an abnormal result at the first assessment. The first cardiac assessment was considered as the baseline value for each patient. For patients with more than one echocardiograph assessment within a year of the study, the change was based on the mean of the results of that year.
Starting in 1995, a substantial proportion of subjects followed up at the center were treated with deferiprone, in clinical trials or for compassionate therapy. For these patients, deferiprone was given in a dose of 25 mg/kg of body weight, three times per day. The remaining patients had maintained therapy with desferrioxamine (20 to 60 mg/kg/day), given as a subcutaneous infusion for 8 to 12 hour, 4 to 7 days a week except for one patient. Although 2 patients in the desferrioxamine group had their chelation intensified with intravenous chelation during the period of this review, they were not excluded from the analysis.
The Kaplan-Meier analysis of heart disease free survival for patients who were disease-free (NYHA class not applicable=0) at the beginning of the review period was performed by using the procedure LIFETEST from SAS (SAS Institute, Cary, N.C.). The primary comparison of the two groups was based on the log rank test. […] In addition to the Kaplan-Meier analysis, the incidence of patients with a worsening of their NYHA class from the first to the last cardiac assessment was determined for, each treatment group. Chi-square test was performed to compare the incidence between the two groups.

[2] = system: iron overload in patients with thalassemia major; test: Iron overload assessment in the retrospective study (serum ferritin, hepatic iron by SQUID, urinary iron excretion); format: in vivo, human; conditions: for Mean ± SD overall urinary iron excretion: during the study period
Experimental: All patients were subjected to the same transfusion regimen aimed at maintaining the pretransfusion hemoglobin levels at 9.5–10.0 g/dL and the mean hemoglobin at 12.0 g/dL. At each episode of red blood cell transfusion, each patient was interviewed and underwent clinical evaluation by a staff physician. The iron overload was determined by monthly assessment of the transfusional-iron input and by quarterly assessment of serum ferritin.
To evaluate the differences related to chelation therapy between the two groups of subjects, after the start of the study, 2 sample t-tests or Chi-square tests were performed to compare their transfusional iron input, serum ferritin, percentage of subjects with more than 50% of their serum ferritin data greater than 2500 μg/L during the study, compliance with chelation therapy, liver iron concentration and urinary iron excretion.

[3] = Serum / blood concentrations at standard doses; format: in vivo, human; conditions: current / standard formulation
Experimental: Although a serum concentration of 100 μM for deferiprone can occur with the administration of a single 25 mg/kg dose^22, the serum concentration of desferrioxamine in patients receiving 40 mg/kg/day is usually less than 10 μM.^23. Since the desferrioxamine concentrations used in the myocyte study were more than 10fold the expected serum concentrations, the in vivo cardioprotective effect of this chelator would be expected to be less than that of deferiprone, but not four times less protective placing the patient at a 4-fold greater likelihood of developing a worsening of their cardiac status with desferrioxamine.
Another factor may be related to the different pharmacokinetic characteristics of deferiprone and desferrioxamine when these drugs are given at standard doses, as in the present study. For example, deferiprone at 25 mg/kg, produces peak concentrations of approximately 100 μM with serum concentrations declining to about 10 μM in 6 hours, and this pattern is repeated three times daily, seven days a week. On the other hand, desferrioxamine at 40 mg/kg achieves concentrations of only 5–10 μM and only for the duration of the infusion (8–12 hours/day, 5–7 days per week). The long periods of time without the presence of an iron chelator may have a profound effect on the generation of iron-induced activity within myocytes and through non-transferrin bound iron. […]

[4] = system: subjects with thalassemia; test: Prospective clinical study of the Assignee in 187 subjects with thalassemia, heart failure; format: in vivo, human; conditions: treated for up to 5 years
Description: The Assignee completed other studies wherein the largest prospective clinical study ever conducted for an iron chelator was made. One hundred eighty-seven subjects with thalassemia were enrolled in this trial conducted by Drs. A. Cohen, R. Galanello, A. Piga, and V. De […] in 3 centres in Italy and 1 center in the USA.

[5] = system: subjects with thalassemia major; conditions: one patient participating in the study (ref. 31); cited from earlier work
cardiac iron = conditions: cited from earlier work; for Change in T2 relaxation time in a randomized trial: mean treatment period of 22 months
[6] = system: iron-loaded rat neonatal myocytes; conditions: cited from earlier work; for Cardio-protective effects against iron-induced damage in neonatal rat myocytes: 100 μM; for Protecting the myocytes against iron-induced damage: at the concentrations used; for Removing iron from iron-loaded rat neonatal myocytes: in vitro
mouse model = mouse model of Gale et al; cited from earlier work
[7] = cited from earlier work
patients = conditions: large safety study; cited from earlier work

SMILES	Percentage of patients with improvement of cardiac disease diagnosed at first assessment [1]	Worsening of the SF at the last assessment ([1]; number of patients) [patients]	Percentage of patients with worsening of the cardiac disease [1]	Newly diagnosed cardiac disease [1] [%]	Deaths during the study period [1]	Normalization of the Ejection Fraction (EF) during chelation therapy [1]	Improvement of the Systolic Function (SF) [1]	Worsening of the cardiac disease in patients with previously diagnosed cardiac disease [1]	Mean ± SD hepatic iron concentration - SQUID during the last year of the review period [2] [mg FE/g liver wet weight]	Percentage (%) of patients with more than 50% of their serum ferritin results > 2,500 μg/L during the review period [2] [%]	Mean ± SD overall urinary iron excretion [2] [mg Fe/day]	Mean serum ferritin ± SD at year 4 of the review period [2] [µg/L]	Change in T2 relaxation time in a randomized trial (cardiac iron)	Cardio-protective effects against iron-induced damage in neonatal rat myocytes [6]	Protecting the myocytes against iron-induced damage [6]	Removing iron from iron-loaded rat neonatal myocytes [6]	Reduction of iron concentrations from the heart (mouse model)	also measured
Cc1c(O)c(=O)ccn1C [Deferiprone, 1,2-dimethyl-3-hydroxypyrid-4one]	40 (2/5) %	2	4 (2/45) %	5	No patient	All three patients presented a normalization of the EF	2 of the 4	none of the 5	2.5 ± 1.2	33	18.1 ± 13.2	2402 ± 1331	significant improvement	equal cardio-protective effects	equally effective	effective	none of the compounds studied, being desferrioxamine and deferiprone among others, reduced iron concentrations from the heart	Percentage of patients with improvement of cardiac disease diagnosed at first assessment ([1]; listed as deferiprone): 40%; Percentage of patients with worsening of the cardiac disease ([1]; listed as deferiprone): 4%; Time after which blood levels fall to very low levels [3]: about 4 hours; Occurrence of heart failure [4]: no heart failure occurred; Reversal of iron-induced congestive heart failure [5]: successful reversal; T2 relaxation time, after treatment (cardiac iron; 23 patients treated for over one year, normal 32 msec): 30.5 ± 6.7 ms; T2 relaxation time, before (cardiac iron; 23 patients, start value, normal 32 msec): 26.6 ± 8.4 ms; Serum concentrations declining to ([7]; 25 mg/kg, in 6 hours): about 10 μM; Peak concentrations ([7]; 25 mg/kg): approximately 100 μM; Serum concentration ([7]; single 25 mg/kg dose): 100 µM; Development of agranulocytosis (patients): about 1%
CC(=O)N(O)CCCCCNC(=O)CCC(=O)N(O)CCCCCNC(=O)CCC(=O)N(O)CCCCCN [Desferrioxamine]	27 (3/11) %	6	17 (10/59) %	19	No patient	All three patients presented a normalization of the EF	5 of the 8	one of the 11	1.8 ± 1.0	21	15.5 ± 12.9	2050 ± 1319	no change	equal cardio-protective effects	equally effective	effective	none of the compounds studied, being desferrioxamine and deferiprone among others, reduced iron concentrations from the heart	Percentage of patients with improvement of cardiac disease diagnosed at first assessment ([1]; listed as desferrioxamine): 27%; Likelihood to develop a worsening of cardiac status versus deferiprone-treated patients ([1]; desferrioxamine versus deferiprone, same period): 4 fold; Worsening of the EF ([1]; number of patients): 3 patients; Percentage of patients with worsening of the cardiac disease ([1]; listed as desferrioxamine): 17%; Iron removed, comparison of the two chelators ([6]; equimolar concentrations): removed more iron than deferiprone
